Target: T1, human recombinant 5-HT6 receptors (Homo sapiens, UniProt P50406)
T1 construct: purchased Receptor Biology, Inc., Beltsville Md; 20705, USA RB-HS6; host or cells: HEK293 cells (membranes)
Assay: Binding to human recombinant 5-HT6 receptors ([3H]-LSD displacement, HEK293 membranes)
Settings: [3H]-LSD 1 nM, membranes of HEK293 cells, 1 hour at 37° C.; Ki=IC50/(1+L/KD)
Protocol: 1. Binding to Human Recombinant 5-HT6 Receptors
The binding of the compounds according to the invention to human recombinant 5-HT6 receptors can be determined as follows. Membranes of HEK293 cells which express human recombinant 5-HT6 receptors (RB-HS6, Receptor Biology, Inc., Beltsville Md. 20705, USA) were suspended in the ratio 1:40 in ice-cold sample buffer consisting of 50 mM tris HCl, 5 mM MgCl2, 0.5 mM EDTA; 0.1% ascorbic acid and 10 μM pargyline (pH 7.4) and homogenized (Polytron). 100 μl of membrane suspension, 50 μl of [^3H]-LSD (specific activity 75 Ci/mmol, final concentration […]) and 50 μl of test substance solution (8 different concentrations, 10^−5 to 10^−9 M) were incubated for 1 hour at 37° C. and the [^3H]-LSD bound to the receptor was then separated from the free [^3H]-LSD by filtration. The radioactivity retained by the filter was determined by scintillation spectroscopy. All tests were carried out in triplicate determinations. The IC50 values were calculated using the program GraphPadPrism (Hill equation, special: one-site competition). The inhibition constant of the test substance Ki was determined from the IC50 value of the compounds (concentration of the test substance at which 50% of the ligand bound to the receptor is displaced), the dissociation constant KD and the concentration L of [^3H]-LSD (Ki=IC50/(1+L/KD)).

T1 sequence (P50406 whole entry): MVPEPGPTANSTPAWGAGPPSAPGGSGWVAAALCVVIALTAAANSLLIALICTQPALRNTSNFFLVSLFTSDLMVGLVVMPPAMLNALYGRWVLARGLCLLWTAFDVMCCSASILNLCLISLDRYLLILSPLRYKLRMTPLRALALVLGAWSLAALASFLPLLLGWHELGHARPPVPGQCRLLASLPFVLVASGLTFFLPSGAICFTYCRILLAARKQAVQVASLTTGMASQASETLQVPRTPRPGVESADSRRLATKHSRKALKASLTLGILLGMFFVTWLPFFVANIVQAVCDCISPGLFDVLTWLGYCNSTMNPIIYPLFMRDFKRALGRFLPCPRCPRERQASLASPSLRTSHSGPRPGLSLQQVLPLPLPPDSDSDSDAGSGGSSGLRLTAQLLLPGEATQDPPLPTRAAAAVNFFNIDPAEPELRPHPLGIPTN

Ki: 12 nM
SMILES: CCn1ccc2ccc(S(=O)(=O)Nc3cccc(NC(=O)C(C)(C)C)c3)cc21 [Example 44]

— patent US20040122076A1, “Sulphonamides for the treatment of central nervous system diseases” (priority 2000, published 2004)
